Results taken from PMC10578347 (Journal of Medicinal Chemistry, 2023).
“Also recorded” adds a separate entry of the source.

How the values were obtained:
[1] = test system: TH, VMAT2, SOD1/2 mRNA expression in N27 rat dopaminergic neural cells; type: cell-based
[2] = biological target: Nurr1 LBD; conditions: cited from earlier work
[3] = biological target: Nurr1 LBD (Homo sapiens, UniProt P43354); test: Isothermal titration calorimetry; type: binding; conditions: ITC, 25 °C, recombinant Nurr1 LBD
Nurr1 LBD (Homo sapiens, UniProt P43354), sequence (P43354 360-598): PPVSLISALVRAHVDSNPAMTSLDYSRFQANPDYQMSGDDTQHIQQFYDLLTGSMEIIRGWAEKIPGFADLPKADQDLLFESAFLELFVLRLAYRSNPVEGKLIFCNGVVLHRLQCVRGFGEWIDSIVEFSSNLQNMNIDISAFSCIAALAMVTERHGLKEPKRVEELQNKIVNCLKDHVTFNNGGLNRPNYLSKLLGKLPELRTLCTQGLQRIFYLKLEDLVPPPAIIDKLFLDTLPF

[4] = test system: HEK293T cells; test: WST-8 cytotoxicity assay; type: cell-based; conditions: stable Renilla luciferase activity and WST-8 assay; 100 μM
[5] = biological target: Nur77 (NR4A1) (Homo sapiens, UniProt P22736); type: cell-based
Nur77 (NR4A1), sequence (P22736 360-595 limits assumed, species assumed): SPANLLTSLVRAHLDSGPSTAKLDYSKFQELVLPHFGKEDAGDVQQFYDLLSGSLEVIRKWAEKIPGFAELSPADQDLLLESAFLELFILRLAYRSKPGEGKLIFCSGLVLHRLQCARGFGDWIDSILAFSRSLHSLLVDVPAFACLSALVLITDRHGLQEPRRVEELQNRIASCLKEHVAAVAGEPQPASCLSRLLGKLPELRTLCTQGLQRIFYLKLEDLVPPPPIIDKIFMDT

[6] = biological target: T1, NOR-1 (NR4A3) (Homo sapiens, UniProt Q92570); type: cell-based
T1 sequence (Q92570 394-623 limits assumed): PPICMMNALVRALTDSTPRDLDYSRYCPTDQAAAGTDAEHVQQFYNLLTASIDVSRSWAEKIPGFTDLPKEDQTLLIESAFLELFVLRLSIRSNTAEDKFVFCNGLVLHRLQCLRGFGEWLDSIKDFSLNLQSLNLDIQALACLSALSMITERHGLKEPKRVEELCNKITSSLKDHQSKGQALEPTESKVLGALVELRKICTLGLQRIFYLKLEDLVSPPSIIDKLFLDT

[7] = test system: nuclear receptors outside the NR4A family (THRα, RARα, PPARγ, revERBα, RORγ, VDR, LXRα, FXR, RXRα); type: cell-based
[8] = Glutathione reactivity assay; type: physicochemical; conditions: 125 μM compound, 2.5 mM GSH in PBS at 37 °C, up to 24 h
[9] = test system: TH and VMAT2 mRNA expression in T98G cells; type: cell-based, human

Structure (SMILES)	TH, VMAT, SOD1/2 expression [1]	Kd [3]	effect on cell viability [4]	also measured
Clc1ccc2[nH]ccc2c1 [2b, 5-chloro-1H-indole]	induced	–	–	Kd [2]: 15 µM
CC(C)N1CCC(NC(=O)c2cc3[nH]ccc3cc2Cl)CC1 [5e]	–	no detectable interaction; also recorded: no binding^c	no pronounced effect on cell viability	–
CC1CCN(CCCNC(=O)c2cc3[nH]ccc3cc2Cl)CC1 [5m]	–	no detectable interaction; also recorded: no binding^c	no pronounced effect on cell viability	–
CN(C)CCOc1ccc(Cl)cc1NC(=O)c1cc2[nH]ccc2cc1Cl [5o, 5-Chloro-N-{5-chloro-2-[2-(dimethylamino)ethoxy]phenyl}-1H-indole-6-carboxamide]	induced	–	no pronounced effect on cell viability	activity on Nur77 (NR4A1) [5]: preference for Nurr1 over the related NR4A receptors; also recorded: preference of 5o for Nurr1 over Nur77; activity on NOR-1 (NR4A3) [6]: preference for Nurr1 over the related NR4A receptors; also recorded: no NOR-1 (NR4A3) activation; modulation of nuclear receptors outside the NR4A family [7]: did not modulate; also recorded: No nuclear receptor modulation; stability against reaction with glutathione (GSH) [8]: stable; also recorded: High stability; Nurr1-regulated mRNA expression of TH and VMAT2 [9]: induced
O=C(NCCN1CCC2CCCCC2C1)c1cc2[nH]ccc2cc1Cl (centres unmarked) [5r]	–	–	no pronounced effect on cell viability	–
CCN(CC)C1CCC(NC(=O)c2cc3[nH]ccc3cc2Cl)CC1 (centres unmarked) [5t]	–	no detectable interaction; also recorded: no binding^c	no pronounced effect on cell viability	–
CCCCN1CCC(CNC(=O)c2cc3[nH]ccc3cc2Cl)C1 (centres unmarked) [5v]	–	–	no pronounced effect on cell viability	–
Oc1cc2cc[nH]c2cc1O [DHI (2a), 5,6-dihydroxyindole]	generally weaker effects	–	–	TH expression [1]: downregulated
CN(C)CCOc1ccc(Cl)cc1Nc1ccnc2cc(Cl)ccc12 [compound 13, 7-Chloro-N-{5-chloro-2-[2-(dimethylamino)ethoxy]phenyl}quinolin-4-amine]	induced	–	–	activity on Nur77 (NR4A1) [5]: activated Nurr1 and Nur77 with equal potency; activity on NOR-1 (NR4A3) [6]: preference over NOR-1; also recorded: less active on NOR-1; modulation of nuclear receptors outside the NR4A family [7]: did not modulate; also recorded: No nuclear receptor modulation
